Reference: patent publication US20070275977A1, “N-OXIDES OF PYRIDYLMETHYL -PIPERAZINE AND -PIPERIDINE DERIVATIVES” (priority 2006, published 2007)

What was measured:
Dopamine-D4 = Dopamine-D4 (Homo sapiens, UniProt P21917); experiment: In vitro receptor affinity, Dopamine-D4; assay type: binding; details: radioligand [3H]-spiperone, read-out: K1 (in vitro receptor affinity)
Method: (§1) ln vitro affinity for neurotransmitter receptors: The binding data collected below were either obtained by CE REP (128, rue Danton, 92500 Rueil-Malmaison, France) or at Solvay Pharmaceuticals B.V. (C. J. van Houtenlaan 36, 1381 CP Weesp, The Netherlands), using well documented standard procedures. The affinities for dopamine-D2 and 5-HT1A receptors for instance, were measured as described by Creese (1997) and Gozlan (1983) respectively.

Serotonin-5-HT4 = Serotonin-5-HT4 (Homo sapiens, UniProt Q13639); experiment: In vitro receptor affinity, Serotonin-5-HT4; assay type: binding; details: radioligand [3H]-GR 113808, read-out: K1 (in vitro receptor affinity)
Serotonin-5-HT4, sequence (Q13639 whole entry): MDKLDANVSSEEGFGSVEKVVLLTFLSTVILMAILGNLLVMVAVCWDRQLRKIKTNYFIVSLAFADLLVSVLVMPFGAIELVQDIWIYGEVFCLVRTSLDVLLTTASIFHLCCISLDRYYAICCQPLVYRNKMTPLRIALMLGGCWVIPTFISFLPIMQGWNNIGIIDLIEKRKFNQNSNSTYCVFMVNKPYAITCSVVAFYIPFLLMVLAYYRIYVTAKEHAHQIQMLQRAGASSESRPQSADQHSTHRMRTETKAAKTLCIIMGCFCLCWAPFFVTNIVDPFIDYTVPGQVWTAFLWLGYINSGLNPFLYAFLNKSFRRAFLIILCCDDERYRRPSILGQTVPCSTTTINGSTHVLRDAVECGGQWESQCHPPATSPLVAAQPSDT
Method: as §1

α1-adrenergic = experiment: In vitro receptor affinity, α1-adrenergic; assay type: binding; details: rat, radioligand [3H]-prazosin; read-out: K1 (in vitro receptor affinity)
Method: as §1

Dopamine-D1 = Dopamine-D1 (Homo sapiens, UniProt P21728); experiment: In vitro receptor affinity, Dopamine-D1; assay type: binding; details: radioligand [3H]-SCH 23390, read-out: K1 (in vitro receptor affinity)
Dopamine-D1, sequence (P21728 whole entry): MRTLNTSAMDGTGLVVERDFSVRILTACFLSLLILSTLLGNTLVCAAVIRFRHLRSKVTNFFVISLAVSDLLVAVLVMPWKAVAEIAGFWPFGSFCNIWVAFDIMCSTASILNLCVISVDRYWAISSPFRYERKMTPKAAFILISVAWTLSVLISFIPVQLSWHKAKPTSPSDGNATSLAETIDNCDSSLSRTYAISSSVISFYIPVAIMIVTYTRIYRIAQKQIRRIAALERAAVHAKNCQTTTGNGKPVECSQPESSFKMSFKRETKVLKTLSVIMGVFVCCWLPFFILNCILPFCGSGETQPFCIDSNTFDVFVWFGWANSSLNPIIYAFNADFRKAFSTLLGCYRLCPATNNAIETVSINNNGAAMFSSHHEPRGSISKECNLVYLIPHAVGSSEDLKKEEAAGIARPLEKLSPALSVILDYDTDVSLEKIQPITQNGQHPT
Method: as §1

[1] = tested on: Apomorphine-induced climbing behaviour in mice; experiment: Antagonism of apomorphine-induced climbing behaviour in mice; assay type: in vivo; details: Mus musculus, po, read-out: Antagon. apomorphine ind. climbing: ED50
Method: (§2) For oral (p.o.) administration: to the desired quantity (0.5-5 mg) of the solid test compound in a glass tube, some glass beads were added and the solid was milled by vortexing for 2 minutes. After addition of 1 ml of a solution of 1% methylcellulose in water and 2% (v/v) of Poloxamer 188 (Lutrol F68), the compound was suspended by vortexing for 10 minutes. The pH was adjusted to 7. Remaining particles in the suspension were further suspended by using an ultrasonic bath.
(§3) Lower lip retraction, an in vivo animal model for serotonin 5-HT1A receptor agonistic activity, was measured according to the method described by Berendsen (1989); Apomorphine-induced climbing behaviour in mice, an in vivo animal model for dopamine-D2 receptor antagonistic activity, was determined according to the method described by Costall (1978).

[2] = Partition coefficient, experimental (Log P); assay type: physicochemical; details: at pH 7.0
Serotonin-5-HT7 = Serotonin-5-HT7 (Homo sapiens, UniProt P34969); experiment: In vitro receptor affinity, Serotonin-5-HT7; assay type: binding; details: radioligand [3H]-LSD, read-out: K1 (in vitro receptor affinity)
Serotonin-5-HT7, sequence (P34969 whole entry): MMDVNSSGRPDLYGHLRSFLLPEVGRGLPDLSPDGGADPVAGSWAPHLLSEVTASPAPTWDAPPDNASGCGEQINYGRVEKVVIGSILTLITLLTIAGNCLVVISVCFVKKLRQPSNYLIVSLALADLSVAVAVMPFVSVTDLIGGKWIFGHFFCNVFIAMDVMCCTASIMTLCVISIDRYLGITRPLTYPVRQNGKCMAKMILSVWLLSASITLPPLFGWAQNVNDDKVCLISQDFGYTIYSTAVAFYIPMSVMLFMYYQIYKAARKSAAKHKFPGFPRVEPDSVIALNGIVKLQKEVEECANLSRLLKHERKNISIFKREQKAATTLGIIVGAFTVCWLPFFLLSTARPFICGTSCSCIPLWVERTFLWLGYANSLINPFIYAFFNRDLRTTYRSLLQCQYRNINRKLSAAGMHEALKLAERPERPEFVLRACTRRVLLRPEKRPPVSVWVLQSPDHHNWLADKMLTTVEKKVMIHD
Method: as §1

[3] = Volume of distribution measured in mice; assay type: in vivo; details: for VD in liters per kilograms: measured in mice; for Vd: plasma, calculated for an average person weighing 70 kg from mouse VD
Method: The volume of distribution (VD), also known as the ‘apparent volume of distribution’, is a pharmacological term used to quantify the distribution of a drug throughout the body after oral or parenteral dosing. It is defined as the volume in which the amount of drug would need to be uniformly distributed in to produce the observed concentration (Widmark, 1919).
The volume of distribution of SLV313 and its pyridine N-oxide was measured in mice, using the standard procedure well known in the art:
The volume of distribution is not a physiological volume, but rather the ratio between the total amount of drug in the body and its concentration in plasma. It is generally accepted that the volume of distribution is more or less the same across species, making it a parameter that, when measured in laboratory animals, has a high predictive value towards man.

human D2 receptors = molecular target: T1, human D2 receptors (Homo sapiens, UniProt P14416); experiment: In vitro functional antagonism at D2 receptors, adenylate cyclase in CHO cell-lines; assay type: cell-based; details: CHO cell-lines expressing cloned receptor; read-out: Antagonism human D2 receptors, pA2 (converted)
T1 construct: expressed in transfected cells; host or cells: CHO
Method: (§4) In vitro (ant)agonistic activity at human D2 receptors and 5-HT1A receptors was measured according to the methods described by Solomon (1974) and Weiss (1985) respectively, on the formation of adenylate cyclase in CHO cell-lines expressing these cloned receptors.

Muscarine-M4 = Muscarine-M4 (Homo sapiens, UniProt P08173); experiment: In vitro receptor affinity, Muscarine-M4; assay type: binding; details: radioligand [3H]-4-DAMP, read-out: K1 (in vitro receptor affinity)
Muscarine-M4, sequence (P08173 whole entry): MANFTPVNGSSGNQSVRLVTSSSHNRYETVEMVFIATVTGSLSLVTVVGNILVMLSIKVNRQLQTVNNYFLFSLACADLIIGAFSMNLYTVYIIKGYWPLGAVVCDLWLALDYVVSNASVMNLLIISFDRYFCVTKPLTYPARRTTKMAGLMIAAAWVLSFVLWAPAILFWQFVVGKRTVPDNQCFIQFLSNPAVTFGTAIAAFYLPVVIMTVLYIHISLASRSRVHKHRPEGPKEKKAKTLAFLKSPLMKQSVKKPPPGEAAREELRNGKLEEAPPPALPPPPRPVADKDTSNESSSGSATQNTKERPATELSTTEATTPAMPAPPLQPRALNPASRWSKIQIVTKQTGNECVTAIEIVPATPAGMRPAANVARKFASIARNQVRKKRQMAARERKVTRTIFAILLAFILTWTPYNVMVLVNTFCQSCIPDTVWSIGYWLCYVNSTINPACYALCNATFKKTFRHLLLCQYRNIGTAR
Method: as §1

Serotonin-5-HT1D = experiment: In vitro receptor affinity, Serotonin-5-HT1D; assay type: binding; details: bovine, radioligand [3H]-serotonin; read-out: K1 (in vitro receptor affinity)
Method: as §1

Lower lip retraction = experiment: Lower lip retraction; assay type: in vivo; details: po; read-out: Lower Lip Retraction: ED50
Method: as §2, §3

Serotonin-5-HT2C = Serotonin-5-HT2C (Homo sapiens, UniProt P28335); experiment: In vitro receptor affinity, Serotonin-5-HT2C; assay type: binding; details: radioligand [125I]-DOI, read-out: K1 (in vitro receptor affinity)
Serotonin-5-HT2C, sequence (P28335 33-458): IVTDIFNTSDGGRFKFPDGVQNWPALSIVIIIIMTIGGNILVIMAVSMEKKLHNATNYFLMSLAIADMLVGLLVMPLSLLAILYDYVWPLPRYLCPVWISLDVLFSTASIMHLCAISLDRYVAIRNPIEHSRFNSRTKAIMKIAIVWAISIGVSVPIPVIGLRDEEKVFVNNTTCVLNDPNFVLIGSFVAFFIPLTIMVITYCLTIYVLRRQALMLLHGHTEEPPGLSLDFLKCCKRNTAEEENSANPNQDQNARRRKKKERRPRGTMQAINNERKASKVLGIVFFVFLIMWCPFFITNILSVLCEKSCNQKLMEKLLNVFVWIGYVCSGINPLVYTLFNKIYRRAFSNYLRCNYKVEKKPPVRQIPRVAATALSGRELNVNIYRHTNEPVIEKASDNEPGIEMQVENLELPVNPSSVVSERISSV
Method: as §1

α2-adrenergic = experiment: In vitro receptor affinity, α2-adrenergic; assay type: binding; details: rat, radioligand [3H]-RX 821002; read-out: K1 (in vitro receptor affinity)
Method: as §1

μ-opiate = μ-opiate (Rattus norvegicus, UniProt P33535); experiment: In vitro receptor affinity, μ-opiate; assay type: binding; details: radioligand [3H]-DAMGO, read-out: K1 (in vitro receptor affinity)
μ-opiate, sequence (P33535 whole entry): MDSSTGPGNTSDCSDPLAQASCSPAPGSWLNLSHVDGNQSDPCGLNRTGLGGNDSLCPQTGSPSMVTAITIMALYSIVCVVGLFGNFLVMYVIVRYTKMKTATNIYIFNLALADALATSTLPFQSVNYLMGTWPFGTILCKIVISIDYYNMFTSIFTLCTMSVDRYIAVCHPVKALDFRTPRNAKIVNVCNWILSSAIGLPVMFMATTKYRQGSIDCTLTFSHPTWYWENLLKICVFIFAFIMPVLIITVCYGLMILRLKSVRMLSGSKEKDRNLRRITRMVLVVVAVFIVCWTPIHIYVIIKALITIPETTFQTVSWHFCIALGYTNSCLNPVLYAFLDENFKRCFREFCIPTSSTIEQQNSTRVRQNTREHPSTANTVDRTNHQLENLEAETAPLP
Method: as §1

Serotonin-5-HT6 = Serotonin-5-HT6 (Homo sapiens, UniProt P50406); experiment: In vitro receptor affinity, Serotonin-5-HT6; assay type: binding; details: radioligand [3H]-LSD, read-out: K1 (in vitro receptor affinity)
Serotonin-5-HT6, sequence (P50406 whole entry): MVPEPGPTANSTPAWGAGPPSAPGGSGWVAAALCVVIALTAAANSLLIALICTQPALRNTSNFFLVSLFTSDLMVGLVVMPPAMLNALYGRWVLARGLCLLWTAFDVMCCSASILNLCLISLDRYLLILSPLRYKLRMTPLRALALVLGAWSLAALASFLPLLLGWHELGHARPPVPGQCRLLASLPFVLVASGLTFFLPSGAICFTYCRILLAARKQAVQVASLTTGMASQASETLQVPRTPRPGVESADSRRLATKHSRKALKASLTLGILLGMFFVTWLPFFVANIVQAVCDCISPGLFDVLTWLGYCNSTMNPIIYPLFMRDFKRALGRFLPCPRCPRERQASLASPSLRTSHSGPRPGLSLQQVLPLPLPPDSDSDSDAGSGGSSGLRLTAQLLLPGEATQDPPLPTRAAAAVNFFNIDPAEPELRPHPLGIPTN
Method: as §1

human 5-HT1A receptors = molecular target: T2, human 5-HT1A receptors (Homo sapiens, UniProt P08908); experiment: In vitro functional agonism at 5-HT1A receptors, adenylate cyclase in CHO cell-lines; assay type: cell-based; details: CHO cell-lines expressing cloned receptor; read-out: Agonism human 5-HT1A receptors, pEC50 (converted)
T2 construct: expressed in transfected cells; host or cells: CHO
T2 sequence (P08908 whole entry): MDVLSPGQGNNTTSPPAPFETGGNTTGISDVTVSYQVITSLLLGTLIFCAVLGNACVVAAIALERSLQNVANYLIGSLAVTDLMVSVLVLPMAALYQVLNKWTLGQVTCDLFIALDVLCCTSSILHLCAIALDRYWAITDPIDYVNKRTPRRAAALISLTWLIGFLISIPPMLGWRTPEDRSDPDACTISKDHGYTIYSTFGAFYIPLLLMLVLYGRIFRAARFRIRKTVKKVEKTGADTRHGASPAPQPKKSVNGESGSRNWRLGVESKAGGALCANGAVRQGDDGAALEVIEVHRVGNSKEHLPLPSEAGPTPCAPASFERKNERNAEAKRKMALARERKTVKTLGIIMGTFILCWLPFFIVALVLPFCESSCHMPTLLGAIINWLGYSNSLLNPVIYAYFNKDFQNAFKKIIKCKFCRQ
Method: as §4

Muscarine-M1 = Muscarine-M1 (Homo sapiens, UniProt P11229); experiment: In vitro receptor affinity, Muscarine-M1; assay type: binding; details: radioligand [3H]-pirenzepine, read-out: K1 (in vitro receptor affinity)
Muscarine-M1, sequence (P11229 whole entry): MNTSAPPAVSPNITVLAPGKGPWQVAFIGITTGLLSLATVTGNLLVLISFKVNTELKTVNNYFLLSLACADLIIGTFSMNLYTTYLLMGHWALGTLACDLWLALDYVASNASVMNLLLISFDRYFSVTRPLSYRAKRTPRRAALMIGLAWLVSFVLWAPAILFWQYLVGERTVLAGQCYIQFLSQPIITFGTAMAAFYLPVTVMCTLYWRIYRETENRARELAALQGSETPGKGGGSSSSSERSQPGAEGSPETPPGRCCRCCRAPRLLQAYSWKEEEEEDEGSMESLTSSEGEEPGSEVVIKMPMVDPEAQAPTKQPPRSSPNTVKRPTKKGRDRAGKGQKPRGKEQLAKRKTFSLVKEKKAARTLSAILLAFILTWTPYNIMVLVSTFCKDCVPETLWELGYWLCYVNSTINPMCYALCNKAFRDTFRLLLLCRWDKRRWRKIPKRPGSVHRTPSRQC
Method: as §1

Serotonin-5-HT2A = Serotonin-5-HT2A (Homo sapiens, UniProt P28223); experiment: In vitro receptor affinity, Serotonin-5-HT2A; assay type: binding; details: radioligand [3H]-ketanserin, read-out: K1 (in vitro receptor affinity)
Serotonin-5-HT2A, sequence (P28223 whole entry): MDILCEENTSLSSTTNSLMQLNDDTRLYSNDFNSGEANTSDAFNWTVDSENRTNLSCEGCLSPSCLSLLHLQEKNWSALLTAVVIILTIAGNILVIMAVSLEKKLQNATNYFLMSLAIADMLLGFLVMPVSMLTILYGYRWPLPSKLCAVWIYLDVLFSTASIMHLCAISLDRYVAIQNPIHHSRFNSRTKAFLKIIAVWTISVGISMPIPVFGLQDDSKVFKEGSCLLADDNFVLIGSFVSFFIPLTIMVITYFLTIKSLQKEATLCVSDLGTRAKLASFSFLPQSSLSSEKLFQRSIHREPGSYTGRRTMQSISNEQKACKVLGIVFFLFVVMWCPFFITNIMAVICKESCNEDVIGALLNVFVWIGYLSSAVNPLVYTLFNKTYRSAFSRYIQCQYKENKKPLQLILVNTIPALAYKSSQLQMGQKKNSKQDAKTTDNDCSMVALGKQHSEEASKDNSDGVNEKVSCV
Method: as §1

Dopamine-D4, sequence (P21917 whole entry): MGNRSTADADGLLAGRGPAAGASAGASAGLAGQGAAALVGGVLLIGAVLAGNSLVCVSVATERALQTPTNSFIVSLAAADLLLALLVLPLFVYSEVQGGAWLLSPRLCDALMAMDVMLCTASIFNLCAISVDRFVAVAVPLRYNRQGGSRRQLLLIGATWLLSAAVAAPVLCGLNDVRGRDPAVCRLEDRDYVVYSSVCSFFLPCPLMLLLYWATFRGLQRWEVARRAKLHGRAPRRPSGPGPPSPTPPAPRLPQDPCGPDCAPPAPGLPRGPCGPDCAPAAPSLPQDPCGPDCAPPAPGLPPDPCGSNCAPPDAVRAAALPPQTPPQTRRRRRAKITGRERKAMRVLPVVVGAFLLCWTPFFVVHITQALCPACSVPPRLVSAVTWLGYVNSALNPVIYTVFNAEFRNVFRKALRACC

Structure (SMILES)	Ki (Dopamine-D4)	Ki (Serotonin-5-HT4)	Ki (α1-adrenergic)	Ki (Dopamine-D1)	ED50 [1]	logP [2]	Ki (Serotonin-5-HT7)	VD in liters per kilograms [3]	Vd [3]	Kb (human D2 receptors)	Ki (Muscarine-M4)	Ki (Serotonin-5-HT1D)	ED50 (Lower lip retraction)	Ki (Serotonin-5-HT2C)	Ki (α2-adrenergic)	Ki (μ-opiate)	Ki (Serotonin-5-HT6)	EC50 (human 5-HT1A receptors)	Ki (Muscarine-M1)	Ki (Serotonin-5-HT2A)
Fc1ccc(-c2cncc(CN3CCN(c4cccc5c4OCCO5)CC3)c2)cc1 [SLV313, 3-[[4-(2,3-dihydro-1,4-benzodioxin-5-yl)-1-piperazinyl]methyl]-5-(4-fluorophenyl)pyridine, reference compound]	10 nM	> 1000 nM	500 nM	> 10000 nM	0.5 mg/kg	3.6	63 nM	5 liters per kilograms	350 L	0.501 nM	> 1000 nM	13000 nM	2.3 mg/kg	> 1000 nM	> 1000 nM	8000 nM	> 1000 nM	1.26 nM	> 10000 nM	250 nM
[O-][n+]1cc(CN2CCN(c3cccc4c3OCCO4)CC2)cc(-c2ccc(F)cc2)c1 [pyridine N-oxide, 1-(2,3-dihydro-1,4-benzodioxin-5-yl)-4-[[5-(4-fluorophenyl)-1-oxido-3-pyridinyl]methyl]-piperazine]	20 nM	> 10000 nM	1000 nM	> 10000 nM	0.9 mg/kg	2.6	100 nM	1 liters per kilograms	70 L	0.631 nM	> 10000 nM	4000 nM	3 mg/kg	> 10000 nM	630 nM	3200 nM	> 10000 nM	1.58 nM	> 10000 nM	500 nM
